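Five compound concentrations were applied to cells in 96-well plates for 48 hours; endpoints were derived by simple linear interpolation of the resulting dose-response curve. TGI: total growth inhibition.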
Assays:
Assay in all cases: NCI tumour cell line growth inhibition, 48 h
DMS 273 small cell lung = system: DMS 273 small cell lung
DLD-1 colon = system: DLD-1 colon
P388/ADR leukemia = system: P388/ADR leukemia
M19-MEL melanoma = system: M19-MEL melanoma
HOP-18 NSCLC = system: HOP-18 NSCLC
XF 498 CNS = system: XF 498 CNS
SNB-78 CNS = system: SNB-78 CNS
SN12K1 renal = system: SN12K1 renal
KM20L2 colon = system: KM20L2 colon
DMS 114 small cell lung = system: DMS 114 small cell lung
LXFL 529 NSCLC = system: LXFL 529 NSCLC
RXF-631 renal = system: RXF-631 renal
P388 leukemia = system: P388 leukemia

Compound | TGI (DMS 273 small cell lung) | TGI (DLD-1 colon) | TGI (P388/ADR leukemia) | TGI (M19-MEL melanoma) | TGI (HOP-18 NSCLC) | TGI (XF 498 CNS) | TGI (SNB-78 CNS) | TGI (SN12K1 renal) | TGI (KM20L2 colon) | TGI (DMS 114 small cell lung) | TGI (LXFL 529 NSCLC) | TGI (RXF-631 renal) | TGI (P388 leukemia)
CC[C@]12C=CCN3CC[C@@]4(c5ccc(OC)cc5N(C)[C@H]4[C@@](O)(C(=O)OC)[C@@H]1OC(C)=O)[C@@H]32 | > 200 µM | > 200 µM | > 200 µM | > 63.2 µM | > 200 µM | > 200 µM | > 200 µM | > 200 µM | > 164 µM | > 200 µM | – | – | –
CCOCNC(=O)N(COCC)COCC | – | > 100 µM | – | > 100 µM | – | > 100 µM | > 100 µM | – | > 100 µM | > 100 µM | > 100 µM | > 100 µM | –
Oc1ccc2ccccc2c1N=Nc1ccc(F)cc1 | > 100 µM | – | – | > 100 µM | > 100 µM | – | – | – | > 100 µM | > 100 µM | > 100 µM | – | –
CC(C)CCN=c1cc2n(-c3ccc(Cl)cc3)c3ccccc3nc-2cc1Nc1ccc(Cl)cc1 | 56.4 µM | 68.4 µM | 10.2 µM | 20.2 µM | 56.6 µM | 20.6 µM | > 100 µM | 23.7 µM | 19.7 µM | 7.63 µM | – | – | 11.7 µM

Source: PubChem BioAssay (NCI)
